Paper PMC3268671 (Cell, 2012)

Target: PfHRPII HT-GFP (HT/RLLYE-GFP)
Assay type: binding, Plasmodium falciparum

PI(3)P was tested, and the Kd was > 5 µM.
